Read-outs that look alike come from different tables or passages of the source.
Key:
S1-M1-3.2 cells [1] = test: Cytotoxicity of antitumor agents, 3-day SRB assay, mitoxantrone-selected cells; type: cell-based, human; conditions: relative to S1; 2-7 independent experiments
Description: Cells were cultured for three days in the presence of the antitumor agent (triplicate points per dose). Following a 3-day growth period, cells were fixed in 10% trichloroacetic acid (TCA) for 1 hour, washed extensively with water, and cell-associated protein was stained using 0.1% sulforhodamine B (SRB), a protein binding reagent [Rubinstein et al., Journal of the National Cancer Institute 82, 1113-1118 (1990) and Skehan et al., Journal of the National Cancer Institute 82, 1107-1112 (1990)]. Excess reagent was removed by washing plates in 5% acetic acid, the dye was solubilized in 10 mM Tris base, and absorbance determined in a UV Max spectrophotometer (Molecular Devices, Menlo Park, Calif.) at 540 nm. Cell survival was estimated relative to control wells (no drugs). EC50 values (μM) were estimated from cytotoxicity curves. For S1, the values shown [mean ±SE (number of independent observations)] are taken from Zhang et al., “P-Glycoprotein Mediates Profound Resistance to Bisantrene,” Oncol. Res., 6:291-301, 1994. Values for S1-M1-3.2 are compiled from 2-7 independent experiments.

S1-M1-3.2 cells [2] = conditions: for Toxicity (>20%): compound alone, concentration that causes greater than 20% cell death of S1-M1-3.2 cells; for IC50: read-out: IC50 (μM), resensitizing S1-M1-3.2 cells to mitoxantrone, with 3.2 μM mitoxantrone, 50% cancer cell death; for Per Cent Survival Alone: 3 days; for Difference Score: survival alone minus survival with 3.2 μM mitoxantrone
Description: One of the first reported molecules with reversing activity was verapamil, a calcium channel blocker. […] Cells were plated into 96-well dishes (100 μl/well) in growth medium supplemented with 5% FBS. […] Reversal agents were tested from 0.1-80 μM (triplicate points per dose). In parallel wells, cells were grown in the presence of the reversal agent alone.
The Difference Score is the difference in the percentage of cells surviving when the drug was given alone minus the percentage of cells surviving when the drug was given along with the antitumor agent.
Cell survival was estimated using the Sulforhodamine (SRB) assay.

## COc1cc(NS(C)(=O)=O)ccc1Nc1c2ccccc2nc2ccccc12 [m-AMSA]
S1-M1-3.2 cells [1]
  S1-M1-3.2 (relative resistance): 11

## C(=N\NC1=NCCN1)/c1c2ccccc2c(/C=N/NC2=NCCN2)c2ccccc12 [bisantrene]
S1-M1-3.2 cells [1]
  S1-M1-3.2 (relative resistance): 24

## COc1cc([C@@H]2c3cc4c(cc3[C@@H](O[C@@H]3O[C@@H]5CO[C@@H](c6cccs6)O[C@H]5[C@H](O)[C@H]3O)[C@H]3COC(=O)[C@H]23)OCO4)cc(OC)c1O [VM-26, teniposide]
S1-M1-3.2 cells [1]
  S1-M1-3.2 (relative resistance): 18

## NCCC[C@@H]1c2[nH]c3ccccc3c2C[C@H]2C(=O)N3CCC[C@H]3C(=O)N12 [Example 29a, (5aS,12R,14aS)-12-(3-aminopropyl)-1,2,3,5a,6,11,12,14a-octahydro-5H,14H-pyrrolo[1″,2″:4′,5′]pyrazino[2′,1′:6,1]pyrido[3,4-b]indole-5,14-dione]
S1-M1-3.2 cells [2]
  Toxicity (>20%): >80 µM
  IC50: 20 µM

## CCCCCCCCC[C@H]1c2[nH]c3ccccc3c2C[C@H]2C(=O)N3CCC[C@H]3C(=O)N21 [Example 28, (5aS,12S,14aS)-12-nonyl-1,2,3,5a,6,11,12,14a-octahydro-5H,14H-pyrrolo[1″,2″:4′,5′]pyrazino[2′,1′:6,1]pyrido[3,4-b]Indole-5,14-dione]
S1-M1-3.2 cells [2]
  Toxicity (>20%): 7.0 µM
  IC50: 0.25 µM

## CC(C)CC1c2[nH]c3ccccc3c2CC2C(=O)N3CCCCC3C(=O)N21 [Example 20b, (6aS,13S,15aR)-13-isobutyl-1,2,3,4,6a,7,12,13,15a-nonahydro-6H,15H-pyrido[1″,2″:4′,5′]pyrazino[2′,1′:6,1]pyrido[3,4-b]indole-6H,15H-dione]
S1-M1-3.2 cells [2]
  Toxicity (>20%): 50.0 µM
  IC50: 2 µM

## COc1ccc2c3c(n(CC=C(C)C)c2c1)[C@H](C=C(C)C)N1C(=O)[C@@H]2CCCN2C(=O)[C@@H]1C3 [Example 34]
S1-M1-3.2 cells [2]
  Toxicity (>20%): 2.0 µM
  IC50: 1 µM

## O=C(O)CCC(=O)NCCC[C@H]1c2[nH]c3ccccc3c2C[C@H]2C(=O)N3CCC[C@H]3C(=O)N21 [Example 32, 4-({3-[(5aS,12S,14aS)-5,14-dioxo-2,3,5a,6,11,12,14,14a-octahydro-1H,5H-pyrrolo[1″,2″:4′,5′]pyrazino[2′,1′:6,1]pyrido[3,4-b]indol-12-yl]propyl}amino)-4-oxobutanoic acid]
S1-M1-3.2 cells [2]
  Toxicity (>20%): >80 µM
  IC50: > 80 µM

## CC(C)C[C@@H]1c2[nH]c3ccccc3c2C[C@@H]2C(=O)N3CCC[C@@H]3C(=O)N21 [Example 17a, (5aR,12R,14aR)-12-isobutyl-1,2,3,5a,6,11,12,14a-octahydro-5H,14H-pyrrolo[1″,2″:4′,5′]pyrazino[2′,1′:6,1]pyrido[3,4-b]indole-5,14-dione]
S1-M1-3.2 cells [2]
  Toxicity (>20%): 50.0 µM
  IC50: 35 µM

## O=C(NCCC[C@H]1c2[nH]c3ccccc3c2C[C@H]2C(=O)N3CCC[C@H]3C(=O)N21)OCc1ccccc1 [Example 24b, Benzyl 3-[(5aS,12S,14aS)-5,14-dioxo-2,3,5a,6,11,12,14,14a-octahydro-1H,5H-pyrrolo[1″,2″:4′,5′]pyrazino[2′,1′:6,1]pyrido[3,4-b]indol-12-yl]propylcarbamate]
S1-M1-3.2 cells [2]
  Toxicity (>20%): 20 µM
  IC50: 2 µM

## CC(C)CC1c2[nH]c3ccccc3c2CC2C(=O)N3CCCCC3C(=O)N21 [Example 18b, (6aS,13S,15aS)-13-isobutyl-1,2,3,4,6a,7,12,13,15a-nonahydro-6H,15H-pyrido[1″,2″:4′,5′]pyrazino[2′,1′:6,1]pyrido[3,4-b]indole-6H,15H-dione]
S1-M1-3.2 cells [2]
  Toxicity (>20%): 25.0 µM
  IC50: 1.5 µM

## CC(C)C[C@@H]1c2[nH]c3ccccc3c2C[C@@H]2C(=O)N3CCC[C@H]3C(=O)N21 [Example 15a, (5aR,12R,14aS)-12-isobutyl-1,2,3,5a,6,11,12,14a-octahydro-5H,14H-pyrrolo[1″,2″:4′,5′]pyrazino[2′,1′:6,1]pyrido[3,4-b]indole-5,14-dione]
S1-M1-3.2 cells [2]
  Toxicity (>20%): >80.0 µM
  IC50: 35 µM

## CC(C)CC1c2[nH]c3ccccc3c2CC2C(=O)N3CCCCC3C(=O)N21 [Example 21a, (6aR,13R,15aR)-13-isobutyl-1,2,3,4,6a,7,12,13,15a-nonahydro-6H,15H-pyrido[1″,2″:4′,5′]pyrazino[2′,1′:6,1]pyrido[3,4-b]indole-6H,15H-dione]
S1-M1-3.2 cells [2]
  Toxicity (>20%): 10.0 µM
  IC50: 10.5 µM

## O=C(NCCC[C@@H]1c2[nH]c3ccccc3c2C[C@H]2C(=O)N3CCC[C@H]3C(=O)N12)OCc1ccccc1 [Example 24a, Benzyl 3-[(5aS,12R,14aS)-5,14-dioxo-2,3,5a,6,11,12,14,14a-octahydro-1H,5H-pyrrolo[1″,2″:4′,5′]pyrazino[2′,1′:6,1]pyrido[3,4-b]indol-12-yl]propylcarbamate]
S1-M1-3.2 cells [2]
  Toxicity (>20%): 50 µM
  IC50: 10 µM

## NCCC[C@H]1c2[nH]c3ccccc3c2C[C@H]2C(=O)N3CCC[C@H]3C(=O)N21 [Example 29b, (5aS,12S,14aS)-12-(3-aminopropyl)-1,2,3,5a,6,11,12,14a-octahydro-5H,14H-pyrrolo[1″,2″:4′,5′]pyrazino[2′,1′:6,1]pyrido[3,4-b]indole-5,14-dione]
S1-M1-3.2 cells [2]
  Toxicity (>20%): >80 µM
  IC50: > 80 µM

## CCCC(=O)NCCC[C@H]1c2[nH]c3ccccc3c2C[C@H]2C(=O)N3CCC[C@H]3C(=O)N21 [Example 31, N-{3-[(5aS,12S,14aS)-5,14-dioxo-2,3,5a,6,11,12,14,14a-octahydro-1H,5H-pyrrolo[1″,2″:4′,5′]pyrazino[2′,1′:6,1]pyrido[3,4-b]indol-12-yl]propyl}Butanamide]
S1-M1-3.2 cells [2]
  Toxicity (>20%): >80 µM
  IC50: 65 µM

## CC(C)C[C@H]1c2[nH]c3ccccc3c2C[C@H]2C(=O)N3CCC[C@@H]3C(=O)N21 [Example 16b, (5aS,12S,14aR)-12-isobutyl-1,2,3,5a,6,11,12,14a-octahydro-5H,14H-pyrrolo[1″,2″:4′,5′]pyrazino[2′,1′:6,1]pyrido[3,4-b]indole-5,14-dione]
S1-M1-3.2 cells [2]
  Toxicity (>20%): >80.0 µM
  IC50: 5.5 µM

## O=C(NCCC[C@H]1c2[nH]c3ccccc3c2C[C@H]2C(=O)N3CCC[C@H]3C(=O)N21)[C@@H]1CCCN1 [Example 33, (2S)-N-{3-[(5aS,12S,14aS)-5,14-dioxo-2,3,5a,6,11,12,14,14a-octahydro-1H,5H-pyrrolo[1″,2″:4′,5′]pyrazino[2′,1′:6,1]pyrido[3,4-b]indol-12-yl]propyl}pyrrolidine-2-carboxamide]
S1-M1-3.2 cells [2]
  Toxicity (>20%): >80 µM
  IC50: > 80 µM

## CC(C)C[C@@H]1c2[nH]c3ccccc3c2C[C@H]2C(=O)N3CCC[C@@H]3C(=O)N12 [Example 16a, (5aS,12R,14aR)-12-isobutyl-1,2,3,5a,6,11,12,14a-octahydro-5H,14H-pyrrolo[1″,2″:4′,5′]pyrazino[2′,1′:6,1]pyrido[3,4-b]indole-5,14-dione]
S1-M1-3.2 cells [2]
  Toxicity (>20%): >80.0 µM
  IC50: > 80 µM

## COc1ccc2c3c4n(c2c1)[C@@H](C=C(C)C)OOC(C)(C)C[C@@H]4N1C(=O)[C@@H]2CCCN2C(=O)[C@]1(O)[C@H]3OCC=C(C)C [Fumitremorgin A]
S1-M1-3.2 cells [2]; S1-M1-3.2 cells
  concentration giving 40% cell death (compound alone): 20 µM
S1-M1-3.2 cells [2]; S1-M1-3.2 cells, Table 7 versus Table 8
  activity in the reversal assay compared to FTC, fold lower: 20 fold
S1-M1-3.2 cells [2]; S1-M1-3.2 cells, drug 0.1 μM
  Per Cent Survival with 3.2 μM mitoxantrone: 96 ± 2 Per Cent
  Difference Score: −1
S1-M1-3.2 cells [2]; S1-M1-3.2 cells, drug 0.1 μM alone
  Per Cent Survival Alone: 95 ± 1 Per Cent
S1-M1-3.2 cells [2]; S1-M1-3.2 cells, drug 0.5 μM
  Per Cent Survival with 3.2 μM mitoxantrone: 95 ± 4 Per Cent
  Difference Score: 1
S1-M1-3.2 cells [2]; S1-M1-3.2 cells, drug 0.5 μM alone
  Per Cent Survival Alone: 96 ± 2 Per Cent
S1-M1-3.2 cells [2]; S1-M1-3.2 cells, drug 1 μM
  Per Cent Survival with 3.2 μM mitoxantrone: 94 ± 5 Per Cent
  Difference Score: 2
S1-M1-3.2 cells [2]; S1-M1-3.2 cells, drug 1 μM alone
  Per Cent Survival Alone: 96 ± 1 Per Cent
S1-M1-3.2 cells [2]; S1-M1-3.2 cells, drug 5 μM
  Per Cent Survival with 3.2 μM mitoxantrone: 64 ± 4 Per Cent
  Difference Score: 32
S1-M1-3.2 cells [2]; S1-M1-3.2 cells, drug 5 μM alone
  Per Cent Survival Alone: 96 ± 1 Per Cent
S1-M1-3.2 cells [2]; S1-M1-3.2 cells, drug 10 μM
  Per Cent Survival with 3.2 μM mitoxantrone: 40 ± 6 Per Cent
  Difference Score: 49
S1-M1-3.2 cells [2]; S1-M1-3.2 cells, drug 10 μM alone
  Per Cent Survival Alone: 89 ± 9 Per Cent
S1-M1-3.2 cells [2]; S1-M1-3.2 cells, drug 20 μM
  Per Cent Survival with 3.2 μM mitoxantrone: 35 ± 5 Per Cent
  Difference Score: 24
S1-M1-3.2 cells [2]; S1-M1-3.2 cells, drug 20 μM alone
  Per Cent Survival Alone: 59 ± 4 Per Cent
S1-M1-3.2 cells [2]; S1-M1-3.2 cells, drug 40 μM
  Per Cent Survival with 3.2 μM mitoxantrone: 34 ± 4 Per Cent
  Difference Score: 16
S1-M1-3.2 cells [2]; S1-M1-3.2 cells, drug 40 μM alone
  Per Cent Survival Alone: 50 ± 8 Per Cent
S1-M1-3.2 cells [2]; S1-M1-3.2 cells, drug 80 μM
  Per Cent Survival with 3.2 μM mitoxantrone: 34 ± 4 Per Cent
  Difference Score: 7
S1-M1-3.2 cells [2]; S1-M1-3.2 cells, drug 80 μM alone
  Per Cent Survival Alone: 41 ± 8 Per Cent
S1-M1-3.2 cells [2]
  Toxicity (>20%): 15.0 µM
  IC50: 7 µM
